One block for each compound: values may come before it.
How the values were obtained:
F343C mutant Pgp [1] = molecular target: T1, F343C mutant Pgp (Homo sapiens, UniProt P08183, C1074A/C1125A/C1227A/C137A/C431A/C717A/C956A/F343C); test: Transport of fluorescent substrates in BacMam-transduced HeLa cells (flow cytometry); details: compared to cysless WT Pgp (taken as 100%), calcein-AM 0.5 µM 10 min, Rh123 […], other substrates 0.5 µM 45 min
Experimental: (§1) The BacMam-Pgp virus (encoding cysless WT and the mutant Pgps) was added to 2.5 million HeLa cells at a titer of 50-60 viral particles per cell in 3 ml of DMEM and incubated at 37°C [30]. After 1 hr DMEM was added to make a total of 20 ml in the flask and these infected cells were further incubated for 3-4 hrs. 10 mM butyric acid was then added and the cells continued to incubate at 37°C. After 24 hrs, the cells were trypsinized, washed, counted and analyzed by flow cytometry for cell surface expression and the function of the wildtype and mutant Pgps.
(§2) The transport function of cysless WT and mutant Pgps was determined using fluorescent compounds with flow cytometry as previously described. […] Cells were washed with cold PBS and resuspended in PBS containing 0.1% BSA before analysis.

F343C/V982C mutant Pgp [2] = molecular target: T2, F343C/V982C mutant Pgp (Homo sapiens, UniProt P08183, C1074A/C1125A/C1227A/C137A/C431A/C717A/C956A/F343C/V982C); test: as above; details: compared to cysless WT Pgp (taken as 100%), calcein-AM 0.5 µM 10 min, Rh123 […], other substrates 0.5 µM 45 min
T2 sequence (P08183 whole entry C137A/F343C/C431A/C717A/C956A/V982C/C1074A/C1125A/C1227A): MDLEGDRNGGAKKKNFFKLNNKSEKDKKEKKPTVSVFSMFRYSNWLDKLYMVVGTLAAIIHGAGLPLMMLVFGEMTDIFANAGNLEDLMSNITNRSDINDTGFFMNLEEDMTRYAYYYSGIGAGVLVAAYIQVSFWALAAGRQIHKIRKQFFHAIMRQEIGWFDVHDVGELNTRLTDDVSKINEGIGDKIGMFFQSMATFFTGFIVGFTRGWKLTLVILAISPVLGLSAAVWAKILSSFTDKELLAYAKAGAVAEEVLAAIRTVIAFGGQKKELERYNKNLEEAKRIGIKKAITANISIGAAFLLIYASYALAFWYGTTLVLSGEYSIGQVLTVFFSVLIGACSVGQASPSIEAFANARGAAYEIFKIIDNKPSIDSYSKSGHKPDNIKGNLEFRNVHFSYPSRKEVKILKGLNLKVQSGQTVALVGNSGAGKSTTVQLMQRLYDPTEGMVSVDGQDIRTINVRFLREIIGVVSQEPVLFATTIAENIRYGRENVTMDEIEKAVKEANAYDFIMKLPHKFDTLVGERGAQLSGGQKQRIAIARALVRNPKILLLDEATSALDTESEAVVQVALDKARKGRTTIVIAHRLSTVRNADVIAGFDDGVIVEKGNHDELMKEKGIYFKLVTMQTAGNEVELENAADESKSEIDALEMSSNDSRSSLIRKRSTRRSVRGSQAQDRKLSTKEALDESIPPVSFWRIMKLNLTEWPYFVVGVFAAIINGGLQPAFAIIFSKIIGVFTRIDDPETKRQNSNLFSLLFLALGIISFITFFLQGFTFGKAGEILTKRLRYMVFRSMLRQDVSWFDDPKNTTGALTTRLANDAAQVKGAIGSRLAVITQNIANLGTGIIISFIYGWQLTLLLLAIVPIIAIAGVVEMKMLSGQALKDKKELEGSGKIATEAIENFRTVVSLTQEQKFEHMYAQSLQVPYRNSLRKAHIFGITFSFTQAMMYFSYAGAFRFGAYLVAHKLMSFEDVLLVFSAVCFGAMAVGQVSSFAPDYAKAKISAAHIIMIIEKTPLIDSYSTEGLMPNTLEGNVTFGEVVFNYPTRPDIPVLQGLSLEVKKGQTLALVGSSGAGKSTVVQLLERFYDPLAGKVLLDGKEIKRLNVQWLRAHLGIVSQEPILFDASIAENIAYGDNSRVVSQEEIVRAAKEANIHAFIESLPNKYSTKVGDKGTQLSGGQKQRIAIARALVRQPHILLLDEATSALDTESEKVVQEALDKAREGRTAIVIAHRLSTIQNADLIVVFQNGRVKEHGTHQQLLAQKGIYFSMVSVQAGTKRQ
Experimental: as §1, §2

F728C mutant Pgp [3] = molecular target: T3, F728C mutant Pgp (Homo sapiens, UniProt P08183, C1074A/C1125A/C1227A/C137A/C431A/C717A/C956A/F728C); test: as above; details: compared to cysless WT Pgp (taken as 100%), calcein-AM 0.5 µM 10 min, Rh123 […], other substrates 0.5 µM 45 min
T3 sequence (P08183 whole entry C137A/C431A/C717A/F728C/C956A/C1074A/C1125A/C1227A): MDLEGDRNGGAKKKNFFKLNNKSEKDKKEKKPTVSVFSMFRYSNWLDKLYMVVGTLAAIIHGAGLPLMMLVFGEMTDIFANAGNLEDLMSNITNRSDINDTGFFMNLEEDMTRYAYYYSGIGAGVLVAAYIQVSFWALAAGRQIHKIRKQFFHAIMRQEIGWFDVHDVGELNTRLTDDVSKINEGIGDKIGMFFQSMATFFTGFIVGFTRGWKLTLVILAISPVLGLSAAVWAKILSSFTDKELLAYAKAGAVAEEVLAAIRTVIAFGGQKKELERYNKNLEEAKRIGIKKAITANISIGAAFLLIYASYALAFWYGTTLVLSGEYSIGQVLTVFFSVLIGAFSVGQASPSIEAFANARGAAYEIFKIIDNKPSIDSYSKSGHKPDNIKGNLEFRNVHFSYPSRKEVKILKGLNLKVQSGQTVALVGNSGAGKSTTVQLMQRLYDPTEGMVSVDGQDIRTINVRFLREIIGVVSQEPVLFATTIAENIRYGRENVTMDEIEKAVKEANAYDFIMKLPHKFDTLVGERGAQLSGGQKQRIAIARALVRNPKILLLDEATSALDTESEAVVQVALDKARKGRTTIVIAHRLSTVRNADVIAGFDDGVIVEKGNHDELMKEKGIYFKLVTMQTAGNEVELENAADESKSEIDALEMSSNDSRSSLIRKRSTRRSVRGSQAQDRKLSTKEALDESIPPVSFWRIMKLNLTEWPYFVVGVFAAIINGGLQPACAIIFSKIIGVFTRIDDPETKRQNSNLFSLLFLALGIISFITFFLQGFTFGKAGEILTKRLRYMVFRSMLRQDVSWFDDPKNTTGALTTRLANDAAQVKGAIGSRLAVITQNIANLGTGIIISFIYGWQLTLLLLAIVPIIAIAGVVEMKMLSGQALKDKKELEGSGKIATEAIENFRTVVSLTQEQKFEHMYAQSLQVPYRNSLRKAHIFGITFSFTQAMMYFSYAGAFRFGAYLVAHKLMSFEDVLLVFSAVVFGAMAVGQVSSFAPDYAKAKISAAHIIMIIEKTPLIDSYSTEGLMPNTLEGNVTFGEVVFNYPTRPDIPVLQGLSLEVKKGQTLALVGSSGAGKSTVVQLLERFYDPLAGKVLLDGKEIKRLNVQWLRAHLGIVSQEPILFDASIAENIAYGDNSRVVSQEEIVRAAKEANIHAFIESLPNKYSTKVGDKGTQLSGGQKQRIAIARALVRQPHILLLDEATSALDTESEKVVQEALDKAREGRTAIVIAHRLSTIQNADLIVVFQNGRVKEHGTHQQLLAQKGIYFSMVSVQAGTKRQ
Experimental: as §1, §2

F978C mutant Pgp = F978C mutant Pgp (Homo sapiens, UniProt P08183, C1074A/C1125A/C1227A/C137A/C431A/C717A/C956A/F978C); test: as above; details: compared to cysless WT Pgp (taken as 100%), calcein-AM 0.5 µM 10 min, Rh123 […], other substrates 0.5 µM 45 min
Experimental: as §1, §2

Q725C mutant Pgp [4] = molecular target: T4, Q725C mutant Pgp (Homo sapiens, UniProt P08183, C1074A/C1125A/C1227A/C137A/C431A/C717A/C956A/Q725C); test: as above; details: compared to cysless WT Pgp (taken as 100%), calcein-AM 0.5 µM 10 min, Rh123 […], other substrates 0.5 µM 45 min
Experimental: as §1, §2

Q725C/V982C mutant Pgp [5] = molecular target: T5, Q725C/V982C mutant Pgp (Homo sapiens, UniProt P08183, C1074A/C1125A/C1227A/C137A/C431A/C717A/C956A/Q725C/V982C); test: as above; details: compared to cysless WT Pgp (taken as 100%), calcein-AM 0.5 µM 10 min, Rh123 […], other substrates 0.5 µM 45 min
Experimental: as §1, §2

V982C mutant Pgp [6] = molecular target: T6, V982C mutant Pgp (Homo sapiens, UniProt P08183, C1074A/C1125A/C1227A/C137A/C431A/C717A/C956A/V982C); test: as above; details: compared to cysless WT Pgp (taken as 100%), calcein-AM 0.5 µM 10 min, Rh123 […], other substrates 0.5 µM 45 min
Experimental: as §1, §2

Y307C mutant Pgp [7] = molecular target: T7, Y307C mutant Pgp (Homo sapiens, UniProt P08183, C1074A/C1125A/C1227A/C137A/C431A/C717A/C956A/Y307C); test: as above; details: compared to cysless WT Pgp (taken as 100%), calcein-AM 0.5 µM 10 min, Rh123 […], other substrates 0.5 µM 45 min
T7 sequence (P08183 whole entry C137A/Y307C/C431A/C717A/C956A/C1074A/C1125A/C1227A): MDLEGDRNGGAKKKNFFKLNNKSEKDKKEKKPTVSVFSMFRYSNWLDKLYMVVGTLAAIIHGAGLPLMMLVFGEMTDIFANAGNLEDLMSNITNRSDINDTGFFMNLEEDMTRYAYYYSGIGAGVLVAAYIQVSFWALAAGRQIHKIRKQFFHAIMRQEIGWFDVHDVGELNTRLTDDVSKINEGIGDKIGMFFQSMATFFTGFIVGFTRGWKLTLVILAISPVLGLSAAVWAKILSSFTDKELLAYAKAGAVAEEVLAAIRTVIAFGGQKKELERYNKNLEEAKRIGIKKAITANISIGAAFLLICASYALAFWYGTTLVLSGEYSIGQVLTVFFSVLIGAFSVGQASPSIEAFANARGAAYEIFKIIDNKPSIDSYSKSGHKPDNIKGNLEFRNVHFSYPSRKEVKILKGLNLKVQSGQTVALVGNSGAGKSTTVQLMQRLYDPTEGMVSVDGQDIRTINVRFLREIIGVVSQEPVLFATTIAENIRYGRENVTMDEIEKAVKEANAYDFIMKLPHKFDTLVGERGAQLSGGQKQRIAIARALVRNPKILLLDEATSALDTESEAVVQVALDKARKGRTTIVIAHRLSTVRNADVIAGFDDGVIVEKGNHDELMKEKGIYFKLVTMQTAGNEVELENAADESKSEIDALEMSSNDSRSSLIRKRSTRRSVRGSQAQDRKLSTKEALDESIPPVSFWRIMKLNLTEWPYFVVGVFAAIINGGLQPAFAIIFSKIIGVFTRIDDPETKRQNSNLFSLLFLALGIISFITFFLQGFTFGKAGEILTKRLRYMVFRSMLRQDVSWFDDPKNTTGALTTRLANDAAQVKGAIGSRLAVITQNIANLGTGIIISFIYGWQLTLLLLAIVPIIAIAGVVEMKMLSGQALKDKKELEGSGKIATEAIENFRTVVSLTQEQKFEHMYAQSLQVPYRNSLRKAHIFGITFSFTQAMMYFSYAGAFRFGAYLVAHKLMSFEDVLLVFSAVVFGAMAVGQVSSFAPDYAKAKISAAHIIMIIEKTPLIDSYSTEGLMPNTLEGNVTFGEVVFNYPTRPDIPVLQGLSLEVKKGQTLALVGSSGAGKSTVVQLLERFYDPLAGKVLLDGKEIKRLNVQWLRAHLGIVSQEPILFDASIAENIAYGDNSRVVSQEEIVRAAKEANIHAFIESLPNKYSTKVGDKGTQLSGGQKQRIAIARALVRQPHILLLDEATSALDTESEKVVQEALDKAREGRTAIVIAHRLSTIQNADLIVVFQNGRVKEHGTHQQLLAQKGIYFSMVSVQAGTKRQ
Experimental: as §1, §2

[8] = molecular target: T8, Y307C/Q725C/V982C mutant Pgp (Homo sapiens, UniProt P08183, C1074A/C1125A/C1227A/C137A/C431A/C717A/C956A/Q725C/V982C/Y307C); test: Inhibition of IAAP photo-labeling of Pgp in crude membranes
Experimental: (§3) Then, samples were photocrosslinked with IAAP at 4°C as described in the Materials and Methods section. Mean values from at least three independent experiments are plotted and error bars depict SD.
(§4) High-Five insect cells (Invitrogen, Carlsbad, CA) were infected with recombinant baculovirus carrying the human MDR1 cDNA cysless WT and various mutant Pgps, with a His6-tag at the C-terminus as described previously. Crude membranes were prepared as described previously
(§5) The crude membranes of High-Five insect cells containing 60-80 µg protein per 100 µL in 50 mM MES-Tris buffer (pH 6.8), were incubated for 10 minutes at 37°C in the absence (control) and presence of compound(s) at indicated concentration.

cysless WT Pgp [9] = molecular target: T9, cysless WT Pgp (Homo sapiens, UniProt P08183, C1074A/C1125A/C1227A/C137A/C431A/C717A/C956A); test: as above
T9 sequence (P08183 whole entry C137A/C431A/C717A/C956A/C1074A/C1125A/C1227A): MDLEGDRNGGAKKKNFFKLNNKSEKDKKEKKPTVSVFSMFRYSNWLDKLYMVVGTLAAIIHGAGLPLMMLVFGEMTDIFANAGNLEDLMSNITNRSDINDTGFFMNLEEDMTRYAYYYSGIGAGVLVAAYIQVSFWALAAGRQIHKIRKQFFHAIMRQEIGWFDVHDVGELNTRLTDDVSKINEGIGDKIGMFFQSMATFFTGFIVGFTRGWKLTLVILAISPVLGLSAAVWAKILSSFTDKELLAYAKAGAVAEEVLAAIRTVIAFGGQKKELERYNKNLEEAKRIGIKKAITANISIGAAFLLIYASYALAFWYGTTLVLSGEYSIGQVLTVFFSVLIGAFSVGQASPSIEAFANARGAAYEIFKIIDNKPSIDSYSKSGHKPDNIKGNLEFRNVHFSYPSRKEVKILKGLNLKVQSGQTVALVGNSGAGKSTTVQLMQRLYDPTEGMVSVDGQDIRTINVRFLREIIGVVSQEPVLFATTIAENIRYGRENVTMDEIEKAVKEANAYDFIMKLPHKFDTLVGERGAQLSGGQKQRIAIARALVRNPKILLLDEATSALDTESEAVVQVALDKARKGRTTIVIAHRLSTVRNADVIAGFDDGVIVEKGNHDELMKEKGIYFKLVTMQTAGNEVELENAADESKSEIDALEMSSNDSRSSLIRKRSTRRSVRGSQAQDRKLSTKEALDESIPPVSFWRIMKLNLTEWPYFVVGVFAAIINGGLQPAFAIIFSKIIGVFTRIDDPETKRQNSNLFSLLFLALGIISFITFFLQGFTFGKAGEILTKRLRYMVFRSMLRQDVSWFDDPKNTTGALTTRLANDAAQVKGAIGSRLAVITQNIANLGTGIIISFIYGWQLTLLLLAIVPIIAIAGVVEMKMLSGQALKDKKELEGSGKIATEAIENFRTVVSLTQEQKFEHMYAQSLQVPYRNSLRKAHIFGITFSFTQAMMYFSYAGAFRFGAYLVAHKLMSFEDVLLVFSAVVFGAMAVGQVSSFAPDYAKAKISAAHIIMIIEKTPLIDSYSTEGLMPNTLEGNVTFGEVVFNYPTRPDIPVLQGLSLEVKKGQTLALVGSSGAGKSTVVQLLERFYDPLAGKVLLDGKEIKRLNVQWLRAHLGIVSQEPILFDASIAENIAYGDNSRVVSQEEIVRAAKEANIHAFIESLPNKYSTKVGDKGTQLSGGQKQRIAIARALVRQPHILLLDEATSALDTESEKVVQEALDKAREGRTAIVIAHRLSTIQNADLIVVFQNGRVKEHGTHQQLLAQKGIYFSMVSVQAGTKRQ
Experimental: as §3, §4, §5

F343C mutant Pgp [10] = molecular target: T1, F343C mutant Pgp; test: Vanadate-sensitive ATP hydrolysis of Pgp in crude membranes; details: Verapamil 50 µM, QZ59-SSS 1 µM, FSBA 1 mM
Experimental: (§6) Vanadate-sensitive Pgp-mediated ATP hydrolysis was measured as described in Materials and Methods. […] At least two independent experiments were carried out for each mutant with indicated compounds. Additional information including standard deviations, fold-stimulation or % inhibition, and number of experiments is given in the section (Tables S2 and S3).
as §4
(§7) Crude membranes (10-25 µg protein/100 µ L) from High Five insect cells expressing cysless WT or mutant Pgp were incubated in the presence and absence of sodium orthovanadate (0.3 mM), in a buffer containing 50 mM MES-Tris pH 6.8, 50 mM KCl, 5 mM NaN3, 1 mM EGTA, 1 mM ouabain, 2 mM DTT, and 10 mM MgCl2. […] The reaction was initiated by addition of 5 mM ATP and continued for 20 min at 37°C. […] The reaction was stopped by addition of 100 µ L of 5% SDS and the amount of inorganic phosphate generated was quantified with a colorimetric reaction, as previously described.

F343C/V982C mutant Pgp [11] = molecular target: T2, F343C/V982C mutant Pgp; test: as above; details: Verapamil 50 µM, QZ59-SSS 1 µM, Valinomycin 10 µM, FSBA 1 mM
Experimental: as §6, §4, §7

F728C mutant Pgp [12] = molecular target: T3, F728C mutant Pgp; test: as above; details: Verapamil 50 µM, QZ59-SSS 1 µM, Valinomycin 10 µM, FSBA 1 mM
Experimental: as §6, §4, §7

F728C/V982C mutant Pgp = F728C/V982C mutant Pgp (Homo sapiens, UniProt P08183, C1074A/C1125A/C1227A/C137A/C431A/C717A/C956A/F728C/V982C); test: as above; details: Verapamil 50 µM, QZ59-SSS 1 µM, Valinomycin 10 µM, FSBA 1 mM
Experimental: as §6, §4, §7

Q725C mutant Pgp [13] = molecular target: T4, Q725C mutant Pgp; test: as above; details: Verapamil 50 µM, QZ59-SSS 1 µM, Valinomycin 10 µM, FSBA 1 mM
Experimental: as §6, §4, §7

Q725C/V982C mutant Pgp [14] = molecular target: T5, Q725C/V982C mutant Pgp; test: as above; details: Verapamil 50 µM, QZ59-SSS 1 µM, Valinomycin 10 µM, FSBA 1 mM
Experimental: as §6, §4, §7

V982C mutant Pgp [15] = molecular target: T6, V982C mutant Pgp; test: as above; details: Verapamil 50 µM, QZ59-SSS 1 µM, Valinomycin 10 µM, FSBA 1 mM
Experimental: as §6, §4, §7

Y307C mutant Pgp [16] = molecular target: T7, Y307C mutant Pgp; test: as above; details: Verapamil 50 µM, QZ59-SSS 1 µM, Valinomycin 10 µM, FSBA 1 mM
Experimental: as §6, §4, §7

[17] = molecular target: T8, Y307C/Q725C/V982C mutant Pgp; test: as above; details: Verapamil 50 µM, QZ59-SSS 1 µM, Valinomycin 10 µM, FSBA 1 mM
Experimental: as §6, §4, §7

Y307C/V982C mutant Pgp = Y307C/V982C mutant Pgp (Homo sapiens, UniProt P08183, C1074A/C1125A/C1227A/C137A/C431A/C717A/C956A/V982C/Y307C); test: as above; details: Verapamil 50 µM, QZ59-SSS 1 µM, Valinomycin 10 µM, FSBA 1 mM
Experimental: as §6, §4, §7

cysless WT Pgp [18] = molecular target: T9, cysless WT Pgp; test: as above; details: Verapamil 50 µM, QZ59-SSS 1 µM, Valinomycin 10 µM, FSBA 1 mM
Experimental: as §6, §4, §7

all mutant Pgps = test: as above; format: biochemical, human
Experimental: Crude membranes were prepared as described previously

Transport function (F343C mutant Pgp [1]): 90-100%
Transport function (F343C/V982C mutant Pgp [2]): 90-100%
Transport function (F728C mutant Pgp [3]): 90-100%
Transport function (F978C mutant Pgp): 90-100%
Transport function (Q725C mutant Pgp [4]): 90-100%
Transport function (Q725C/V982C mutant Pgp [5]): 90-100%
Transport function (V982C mutant Pgp [6]): 90-100%
Transport function (Y307C mutant Pgp [7]): 90-100%
SMILES: COc1cccc2c1C(=O)c1c(O)c3c(c(O)c1C2=O)C[C@@](O)(C(C)=O)C[C@@H]3O[C@H]1C[C@H](N)[C@H](O)[C@H](C)O1 [Dauno, daunorubicin]

SMILES: Nc1ncnc2c1ncn2[C@@H]1O[C@H](COC(=O)c2ccc(S(=O)(=O)F)cc2)[C@@H](O)[C@H]1O [FSBA, 5′-fluorosulfonylbenzoyl 5′-adenosine]
Inhibition of IAAP photo-labeling ([8]; Y307C/Q725C/V982C, at higher concentrations): < 30%
Max Inhibition (%) of IAAP-labeling (cysless WT Pgp [9]; Cysless WT, High-Five crude membranes): 85%
IC50 (cysless WT Pgp [9]; read-out: IC50 (µM), inhibition of IAAP-labeling, Cysless WT, High-Five crude membranes): 390 µM
ATP hydrolysis, Average (F343C mutant Pgp [10]): 39 nmoles Pi/min/mg protein
ATP hydrolysis, Fold-stimulation (F343C mutant Pgp [10]; relative to basal): 2.1
ATP hydrolysis, Average (F343C/V982C mutant Pgp [11]): 50 nmoles Pi/min/mg protein
ATP hydrolysis, Fold-stimulation (F343C/V982C mutant Pgp [11]; relative to basal): 2.7
ATP hydrolysis, Average (F728C mutant Pgp [12]): 11 nmoles Pi/min/mg protein
ATP hydrolysis, Fold-stimulation (F728C mutant Pgp [12]; relative to basal): 1.8
ATP hydrolysis, Average (F728C/V982C mutant Pgp): 5 nmoles Pi/min/mg protein
ATP hydrolysis, Fold-stimulation (F728C/V982C mutant Pgp; relative to basal): 1.1
ATP hydrolysis, Average (Q725C mutant Pgp [13]): 10 nmoles Pi/min/mg protein
ATP hydrolysis, Fold-stimulation (Q725C mutant Pgp [13]; relative to basal): 2.0
ATP hydrolysis, Average (Q725C/V982C mutant Pgp [14]): 12 nmoles Pi/min/mg protein
ATP hydrolysis, Fold-stimulation (Q725C/V982C mutant Pgp [14]; relative to basal): 2.3
ATP hydrolysis, Average (V982C mutant Pgp [15]): 28 nmoles Pi/min/mg protein
ATP hydrolysis, Fold-stimulation (V982C mutant Pgp [15]; relative to basal): 2.4
ATP hydrolysis, Average (Y307C mutant Pgp [16]): 14 nmoles Pi/min/mg protein
ATP hydrolysis, Fold-stimulation (Y307C mutant Pgp [16]; relative to basal): 1.9
ATP hydrolysis, Average [17]: 6 nmoles Pi/min/mg protein
ATP hydrolysis, Average (Y307C/V982C mutant Pgp): 20 nmoles Pi/min/mg protein
ATP hydrolysis, Fold-stimulation (Y307C/V982C mutant Pgp; relative to basal): 2.1
ATP hydrolysis, Average (cysless WT Pgp [18]): 52 nmoles Pi/min/mg protein
ATP hydrolysis, Fold-stimulation (cysless WT Pgp [18]; relative to basal): 2.4

SMILES: CC(C)[C@@H]1NC(=O)c2csc(n2)[C@H](C(C)C)NC(=O)c2csc(n2)[C@H](C(C)C)NC(=O)c2csc1n2 [QZ59-SSS]
Inhibition of IAAP photo-labeling [8]: < 30%
IC50 (cysless WT Pgp [9]): 6 µM
Max Inhibition (%) of IAAP-labeling (cysless WT Pgp [9]): 72%
Modulation of ATP hydrolysis (all mutant Pgps; all mutant Pgps, inhibition measured in presence of verapamil 5 µM): stimulates ATP hydrolysis of the mutant Pgps with no exceptions

Transport function (F343C mutant Pgp [1]): 90-100%
Transport function (F343C/V982C mutant Pgp [2]): 90-100%
Transport function (F728C mutant Pgp [3]): 90-100%
Transport function (F978C mutant Pgp): 90-100%
Transport function (Q725C mutant Pgp [4]): 90-100%
Transport function (Q725C/V982C mutant Pgp [5]): 90-100%
Transport function (V982C mutant Pgp [6]): 90-100%
Transport function (Y307C mutant Pgp [7]): 90-100%
SMILES: COC(=O)c1ccccc1-c1c2ccc(=N)cc-2oc2cc(N)ccc12 [Rh123, rhodamine123]

SMILES: COc1ccc(CCN(C)CCCC(C#N)(c2ccc(OC)c(OC)c2)C(C)C)cc1OC (stereo not drawn) [Verapamil, verapamil]
Stimulation of ATP hydrolysis (all mutant Pgps; all the mutants, Verapamil 50 µM): 2-4 fold
